From ChEMBL document CHEMBL1201862, “PubChem BioAssay data set” (2004)
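Interpolation was linear, between the two tested concentrations surrounding the appropriate level; five concentrations were tested over 48 hours in 96-well plates. At the GI50, growth is halved.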 The source made the active and inactive calls. No stated cut-off is given here; in the data, active = GI50 up to about 1.1 µM and inactive = higher.

Key:
Assay in all cases: DTP human tumour cell line panel, 48 h
[1] = test system: SK-MEL-28
[2] = test system: DU-145
[3] = test system: OVCAR-5
[4] = test system: BT-549
[5] = test system: TK-10
[6] = test system: OVCAR-3
[7] = test system: UACC-62
[8] = test system: A498
[9] = test system: LOX IMVI
[10] = test system: ACHN
[11] = test system: UO-31
[12] = test system: RPMI-8226
[13] = test system: U-251
[14] = test system: SNB-75
[15] = test system: RXF 393
[16] = test system: SK-MEL-2
[17] = test system: CCRF-CEM
[18] = test system: MOLT-4
[19] = test system: OVCAR-4
[20] = test system: 786-0

Measured: GI50

CCOC(=O)C(C/C=C/CO)N(C)C(=O)OC(C)(C)C (stereo not given)
inactive: [1] > 100 µM | [2] > 100 µM | [3] > 100 µM | [4] > 100 µM | [5] > 100 µM | [6] > 100 µM | [7] > 100 µM | [8] > 100 µM | [9] > 100 µM | [10] > 100 µM | [11] > 100 µM | [12] > 100 µM | [13] > 100 µM | [14] 50.9 µM | [15] > 100 µM | [16] > 100 µM | [17] 28.1 µM | [18] > 100 µM | [19] > 100 µM | [20] > 100 µM

CC(NC(=O)C(N)CC(=O)O)NC(=O)N1CCOCC1 (stereo not given)
inactive: [1] > 100 µM | [2] > 100 µM | [3] > 100 µM | [4] > 100 µM | [5] > 100 µM | [6] > 100 µM | [7] 19.1 µM | [8] > 100 µM | [9] > 100 µM | [10] > 100 µM | [11] > 100 µM | [12] > 100 µM | [13] > 100 µM | [14] > 100 µM | [15] > 100 µM | [16] > 100 µM | [17] > 100 µM | [18] > 100 µM | [19] > 100 µM | [20] > 100 µM

C=C1C(=O)OC2C1C(OC(=O)/C(C)=C/C)CC(O)(CCl)C1C(O)C=C(C)C21O (stereo not given)
inactive: [1] 13.3 µM | [2] 16.5 µM | [3] 16.7 µM | [4] 9.48 µM | [5] 14.1 µM | [6] 11.9 µM | [7] 12.5 µM | [8] 23.6 µM | [9] 4.89 µM | [10] 5.79 µM | [11] 15 µM | [12] 5.68 µM | [13] 27.5 µM | [14] 27.5 µM | [15] 5.93 µM | [16] 21 µM | [17] 2.84 µM | [18] 3.92 µM | [19] 14.2 µM | [20] 4.88 µM

N=C(N)N/N=C\c1c(-c2cccc([N+](=O)[O-])c2)nc2sc(Cl)cn12
inactive: [1] 2.21 µM | [2] 2.48 µM | [3] 3.91 µM | [4] 2.39 µM | [5] 2.38 µM | [6] 3.24 µM | [7] 27.5 µM | [8] 27.4 µM | [9] 3.7 µM | [10] 29.2 µM | [11] 1.71 µM | [12] 2.22 µM | [13] 3.17 µM | [14] 1.52 µM | [15] 2.19 µM | [16] 1.96 µM | [17] 1.26 µM | [18] 2 µM | [19] 1.54 µM | [20] 3.27 µM
